By melting point is commonly meant the temperature of the solid-liquid transition.

The values below come from publication PMC8725837, “2-Arylquinolines as novel anticancer agents with dual EGFR/FAK kinase inhibitory activity: synthesis, biological evaluation, and molecular modelling insights” (Journal of Enzyme Inhibition and Medicinal Chemistry, 2021).

For one data set, the target named is T1, recombinant human TOP1 (Homo sapiens, UniProt P11387).
T1 sequence (P11387 1-765): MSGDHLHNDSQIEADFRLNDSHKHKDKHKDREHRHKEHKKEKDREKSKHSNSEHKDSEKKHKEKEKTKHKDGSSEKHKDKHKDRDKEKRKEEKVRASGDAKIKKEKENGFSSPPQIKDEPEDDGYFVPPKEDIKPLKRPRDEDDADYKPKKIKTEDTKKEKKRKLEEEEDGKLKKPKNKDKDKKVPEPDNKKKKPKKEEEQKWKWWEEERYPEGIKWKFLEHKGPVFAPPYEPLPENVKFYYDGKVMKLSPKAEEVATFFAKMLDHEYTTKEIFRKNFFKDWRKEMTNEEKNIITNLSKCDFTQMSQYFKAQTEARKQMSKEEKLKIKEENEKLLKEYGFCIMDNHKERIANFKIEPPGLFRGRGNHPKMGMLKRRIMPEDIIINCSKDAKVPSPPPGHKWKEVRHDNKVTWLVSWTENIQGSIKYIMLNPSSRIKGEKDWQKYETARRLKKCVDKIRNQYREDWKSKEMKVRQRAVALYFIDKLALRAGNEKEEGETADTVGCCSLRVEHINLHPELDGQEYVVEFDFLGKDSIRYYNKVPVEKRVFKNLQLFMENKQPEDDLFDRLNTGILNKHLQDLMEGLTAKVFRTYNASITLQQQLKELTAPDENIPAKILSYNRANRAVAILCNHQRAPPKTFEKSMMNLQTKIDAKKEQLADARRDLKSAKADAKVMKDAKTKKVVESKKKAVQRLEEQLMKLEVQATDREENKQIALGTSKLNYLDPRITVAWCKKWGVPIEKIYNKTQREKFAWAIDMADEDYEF
Kind of data set: Topoisomerase I-mediated DNA cleavage assay. The conditions noted are these: tested at 0.1, 1, 10, 100 µM.

In a further data set the target is T2, FRK (Homo sapiens, UniProt P42685).
T2 construct: purchased Invitrogen/Life Technologies
Kind of data set: Z`-LYTE kinase profiling, FRK. In kind it is biochemical.

Another data set concerns the target FAK (Homo sapiens, UniProt Q05397). The data set is described as follows: Z`-LYTE kinase inhibitory assay, FAK.
For another data set, the target named is T3, HER-2 (Homo sapiens, UniProt P04626).
T3 construct: purchased Invitrogen/Life Technologies
The data set is described as follows: Z`-LYTE kinase profiling, HER-2. In kind it is biochemical.

The next data set deals with T4, BTK (Homo sapiens, UniProt Q06187).
T4 construct: purchased Invitrogen/Life Technologies
The data set is described as follows: Z`-LYTE kinase profiling, BTK. The format is biochemical.

In the next data set the target is T5, c-Src (Homo sapiens, UniProt P12931).
T5 construct: purchased Invitrogen/Life Technologies
Kind of data set: Z`-LYTE kinase profiling, c-Src. In kind it is biochemical.

The target in another data set is T6, VEGFR-1 (Homo sapiens, UniProt P17948).
T6 construct: purchased Invitrogen/Life Technologies
Kind of data set: Z`-LYTE kinase profiling, VEGFR-1. The format is biochemical.

The next data set has as its target T7, IGF-1R (Homo sapiens, UniProt P08069).
T7 construct: purchased Invitrogen/Life Technologies
Kind of data set: Z`-LYTE kinase profiling, IGF-1R. In kind it is biochemical.

The subject of data set [1] is HeLa cervical cancer cell line. Kind of data set: MTT antiproliferative assay, HeLa. The format is cell-based. The conditions noted are these: 10 µM, 24 h. As to the method: (§1) At least, three independent experiments were performed.
(In general: Tetrazolium assays rely on reduction of a dye to a coloured formazan, in cell work by metabolically active cells.)

The next data set concerns the target T8, VEGFR-2 (Homo sapiens, UniProt P35968).
T8 construct: purchased Invitrogen/Life Technologies
Kind of data set: Z`-LYTE kinase profiling, VEGFR-2. In kind it is biochemical.

The subject of data set [2] is DLD-1 colorectal cancer cell line. The data set is described as follows: MTT antiproliferative assay, DLD-1. The conditions noted are these: for GI% DLD1: 10 µM, 24 h, MTT; for IC50: Homo sapiens, DLD-1, 24 h, read-out: IC50 DLD1 (half maximal growth inhibitory concentration).
Data set [3] concerns MCF-7 breast cancer cell line. The data set is described as follows: MTT antiproliferative assay, MCF-7. The format is cell-based. The conditions noted are these: 10 µM, 24 h. As for the experimental part: as §1
Another data set deals with EGFR (Homo sapiens, UniProt P00533). The data set is described as follows: Z`-LYTE kinase inhibitory assay, EGFR.
Data set [4] relates to HCT-116 colorectal cancer cell line. Kind of data set: MTT antiproliferative assay, HCT-116. The note with it: for GI% HCT-116: 10 µM, 24 h, MTT; for IC50: Homo sapiens, HCT-116, 24 h, read-out: IC50 HCT-116 (half maximal growth inhibitory concentration).
Experimental: After the incubation of the tested compounds for 24 h, the percent growth inhibition (GI%) was calculated.
Cells were seeded at 1 × 10^4 cells/well and cultured overnight in a 96-well plate. […] Then, 150 µl DMSO was used to solubilise MTT formazan crystals. Finally, the plates were shaken, and the optical density was determined at 570 nm using ELISA plate reader. At least, three independent experiments were performed. Percentage of growth inhibition was determined as (1-[OD of treated cells/OD of control cells]). […] The IC50 values were calculated using Prism v0.8 software (GraphPad Software Inc., La Jolla, CA).
The subject of data set [5] is MDMBA-231 breast cancer cell line. The data set is described as follows: MTT antiproliferative assay, MDMBA-231. The note with it: 10 µM, 24 h. In kind it is cell-based. As to the method:
as §1

Each structure is given as a SMILES string.

T4 sequence (Q06187 whole entry): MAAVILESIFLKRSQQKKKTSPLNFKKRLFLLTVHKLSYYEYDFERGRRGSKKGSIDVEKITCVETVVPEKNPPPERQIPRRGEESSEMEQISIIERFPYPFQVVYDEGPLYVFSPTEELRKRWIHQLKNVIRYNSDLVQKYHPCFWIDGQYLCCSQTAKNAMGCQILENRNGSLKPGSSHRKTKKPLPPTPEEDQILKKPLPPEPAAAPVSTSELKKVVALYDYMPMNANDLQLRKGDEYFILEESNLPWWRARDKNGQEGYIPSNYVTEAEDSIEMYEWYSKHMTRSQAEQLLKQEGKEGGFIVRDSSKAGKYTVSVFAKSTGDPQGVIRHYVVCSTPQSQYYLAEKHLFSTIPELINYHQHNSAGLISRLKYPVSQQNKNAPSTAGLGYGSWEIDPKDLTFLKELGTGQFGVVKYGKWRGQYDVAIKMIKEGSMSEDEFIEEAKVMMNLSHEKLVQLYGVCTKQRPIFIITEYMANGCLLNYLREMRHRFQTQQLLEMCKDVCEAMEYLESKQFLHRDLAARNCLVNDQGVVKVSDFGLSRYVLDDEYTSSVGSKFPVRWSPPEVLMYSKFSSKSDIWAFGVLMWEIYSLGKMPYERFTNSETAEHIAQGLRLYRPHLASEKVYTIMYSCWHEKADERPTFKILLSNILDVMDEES
T3 sequence (P04626 23-1255): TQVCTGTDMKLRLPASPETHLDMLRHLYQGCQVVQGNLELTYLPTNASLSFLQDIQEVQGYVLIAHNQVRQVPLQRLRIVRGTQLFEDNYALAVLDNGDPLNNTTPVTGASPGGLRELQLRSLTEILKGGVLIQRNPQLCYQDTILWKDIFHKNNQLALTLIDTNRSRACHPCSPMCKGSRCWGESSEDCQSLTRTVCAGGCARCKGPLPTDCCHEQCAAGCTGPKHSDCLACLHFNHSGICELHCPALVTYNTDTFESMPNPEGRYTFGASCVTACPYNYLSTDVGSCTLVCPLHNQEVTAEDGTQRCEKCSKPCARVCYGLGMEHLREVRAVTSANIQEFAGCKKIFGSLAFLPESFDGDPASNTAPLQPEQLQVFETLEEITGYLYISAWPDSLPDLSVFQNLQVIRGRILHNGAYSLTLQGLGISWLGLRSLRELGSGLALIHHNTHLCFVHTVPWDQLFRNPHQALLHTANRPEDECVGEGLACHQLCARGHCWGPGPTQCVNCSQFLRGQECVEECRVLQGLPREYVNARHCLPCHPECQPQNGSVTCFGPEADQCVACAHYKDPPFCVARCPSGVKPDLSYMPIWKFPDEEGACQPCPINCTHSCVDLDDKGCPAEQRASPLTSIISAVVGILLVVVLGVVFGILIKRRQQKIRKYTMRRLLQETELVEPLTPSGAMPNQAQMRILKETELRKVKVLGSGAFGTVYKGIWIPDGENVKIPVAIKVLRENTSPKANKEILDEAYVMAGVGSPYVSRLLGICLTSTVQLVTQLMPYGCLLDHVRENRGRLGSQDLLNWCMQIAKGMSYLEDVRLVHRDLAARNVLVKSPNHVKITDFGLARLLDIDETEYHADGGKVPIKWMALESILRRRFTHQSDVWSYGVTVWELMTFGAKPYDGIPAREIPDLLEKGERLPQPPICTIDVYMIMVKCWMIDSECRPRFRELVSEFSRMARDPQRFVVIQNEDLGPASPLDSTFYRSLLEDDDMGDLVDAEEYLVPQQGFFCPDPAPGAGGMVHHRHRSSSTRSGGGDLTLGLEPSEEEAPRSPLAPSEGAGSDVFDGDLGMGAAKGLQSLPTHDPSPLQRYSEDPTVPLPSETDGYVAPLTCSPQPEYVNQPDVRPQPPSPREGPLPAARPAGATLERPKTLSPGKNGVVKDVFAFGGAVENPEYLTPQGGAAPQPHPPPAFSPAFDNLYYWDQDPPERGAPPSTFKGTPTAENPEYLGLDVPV
T2 sequence (P42685 whole entry): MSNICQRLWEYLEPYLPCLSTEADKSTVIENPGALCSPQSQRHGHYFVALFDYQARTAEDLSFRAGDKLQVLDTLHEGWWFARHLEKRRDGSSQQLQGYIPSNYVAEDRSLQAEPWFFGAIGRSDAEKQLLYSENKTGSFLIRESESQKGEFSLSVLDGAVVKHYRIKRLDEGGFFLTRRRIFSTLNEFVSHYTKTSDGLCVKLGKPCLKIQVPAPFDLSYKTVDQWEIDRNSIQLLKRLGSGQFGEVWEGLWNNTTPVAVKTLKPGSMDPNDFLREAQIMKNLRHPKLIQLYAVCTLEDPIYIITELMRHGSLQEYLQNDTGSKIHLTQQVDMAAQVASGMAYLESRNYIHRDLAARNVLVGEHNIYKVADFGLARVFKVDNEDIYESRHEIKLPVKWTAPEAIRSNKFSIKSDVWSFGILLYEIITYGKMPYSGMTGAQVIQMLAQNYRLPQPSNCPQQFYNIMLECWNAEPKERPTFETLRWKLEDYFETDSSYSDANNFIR
T6 sequence (P17948 27-1338): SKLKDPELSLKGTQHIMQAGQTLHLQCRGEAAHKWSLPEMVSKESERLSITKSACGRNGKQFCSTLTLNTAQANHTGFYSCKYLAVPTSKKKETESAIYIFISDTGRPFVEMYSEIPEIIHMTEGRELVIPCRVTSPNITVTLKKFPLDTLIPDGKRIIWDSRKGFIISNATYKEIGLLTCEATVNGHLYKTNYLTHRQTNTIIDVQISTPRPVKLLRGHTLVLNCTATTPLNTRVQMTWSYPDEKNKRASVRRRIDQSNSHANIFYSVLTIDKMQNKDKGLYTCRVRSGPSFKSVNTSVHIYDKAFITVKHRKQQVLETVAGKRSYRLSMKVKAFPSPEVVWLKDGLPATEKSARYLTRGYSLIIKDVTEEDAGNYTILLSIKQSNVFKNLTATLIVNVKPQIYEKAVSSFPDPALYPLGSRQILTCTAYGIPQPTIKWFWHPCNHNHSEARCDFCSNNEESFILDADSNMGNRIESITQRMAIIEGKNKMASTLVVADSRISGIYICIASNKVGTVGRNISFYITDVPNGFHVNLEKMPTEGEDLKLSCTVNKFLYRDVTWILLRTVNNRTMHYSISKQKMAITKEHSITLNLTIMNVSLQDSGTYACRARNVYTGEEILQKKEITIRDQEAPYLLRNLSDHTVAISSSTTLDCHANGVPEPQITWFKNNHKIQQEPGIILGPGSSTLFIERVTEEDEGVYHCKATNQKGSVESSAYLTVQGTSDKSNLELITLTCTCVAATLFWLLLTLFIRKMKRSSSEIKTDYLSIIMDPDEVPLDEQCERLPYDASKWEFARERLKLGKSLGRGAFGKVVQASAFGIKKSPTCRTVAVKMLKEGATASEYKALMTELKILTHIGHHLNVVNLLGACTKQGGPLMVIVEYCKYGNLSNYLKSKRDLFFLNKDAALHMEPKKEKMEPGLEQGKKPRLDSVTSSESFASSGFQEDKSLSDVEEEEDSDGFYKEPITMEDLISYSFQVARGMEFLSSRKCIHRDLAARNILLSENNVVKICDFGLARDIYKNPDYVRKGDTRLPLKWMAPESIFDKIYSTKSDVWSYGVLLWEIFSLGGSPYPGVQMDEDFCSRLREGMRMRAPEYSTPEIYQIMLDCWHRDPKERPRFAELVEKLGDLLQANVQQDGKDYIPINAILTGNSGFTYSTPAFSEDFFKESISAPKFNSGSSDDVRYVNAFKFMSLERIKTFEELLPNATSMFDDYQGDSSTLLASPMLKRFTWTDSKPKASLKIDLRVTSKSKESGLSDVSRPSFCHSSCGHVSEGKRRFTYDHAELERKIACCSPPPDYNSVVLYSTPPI
Sequence of EGFR (P00533 25-1210): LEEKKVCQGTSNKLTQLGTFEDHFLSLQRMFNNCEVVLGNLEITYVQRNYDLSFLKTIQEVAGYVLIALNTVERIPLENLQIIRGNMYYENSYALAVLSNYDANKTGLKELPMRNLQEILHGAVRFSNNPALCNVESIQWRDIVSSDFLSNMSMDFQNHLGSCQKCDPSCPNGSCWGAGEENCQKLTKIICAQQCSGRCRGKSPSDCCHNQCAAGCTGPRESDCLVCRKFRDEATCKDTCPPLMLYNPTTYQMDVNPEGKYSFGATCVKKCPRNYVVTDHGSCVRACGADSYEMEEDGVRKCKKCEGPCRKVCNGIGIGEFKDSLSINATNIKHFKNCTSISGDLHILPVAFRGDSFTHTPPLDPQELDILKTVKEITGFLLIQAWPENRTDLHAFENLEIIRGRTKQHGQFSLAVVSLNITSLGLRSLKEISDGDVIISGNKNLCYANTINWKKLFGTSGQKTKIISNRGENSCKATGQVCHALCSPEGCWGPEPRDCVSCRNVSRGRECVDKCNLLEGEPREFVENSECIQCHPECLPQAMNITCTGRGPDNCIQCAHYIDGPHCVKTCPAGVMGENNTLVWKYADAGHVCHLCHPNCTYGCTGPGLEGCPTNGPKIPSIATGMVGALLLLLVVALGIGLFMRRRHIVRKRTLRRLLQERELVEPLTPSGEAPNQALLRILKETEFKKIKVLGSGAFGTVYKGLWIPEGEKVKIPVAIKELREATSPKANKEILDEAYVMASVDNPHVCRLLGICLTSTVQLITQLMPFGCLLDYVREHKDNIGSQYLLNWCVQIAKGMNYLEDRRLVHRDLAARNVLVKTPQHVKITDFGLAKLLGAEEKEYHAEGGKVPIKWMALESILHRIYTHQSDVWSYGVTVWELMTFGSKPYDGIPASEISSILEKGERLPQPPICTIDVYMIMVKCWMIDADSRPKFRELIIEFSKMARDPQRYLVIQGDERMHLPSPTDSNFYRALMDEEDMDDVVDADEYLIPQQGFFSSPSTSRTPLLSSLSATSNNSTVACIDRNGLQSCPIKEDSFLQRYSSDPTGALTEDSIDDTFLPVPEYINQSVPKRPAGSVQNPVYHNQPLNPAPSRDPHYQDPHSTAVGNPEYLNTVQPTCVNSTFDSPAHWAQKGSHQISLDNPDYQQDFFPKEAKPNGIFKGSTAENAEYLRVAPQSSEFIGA

Turning to `CN1CCN(CCCOc2cc(-c3ccc(C(F)(F)F)cc3)nc3ccccc23)CC1` [10a, 4-(3-(4-methylpiperazin-1-yl)propoxy)-2-(4-(trifluoromethyl)phenyl)quinoline], the melting point is 110 to 112 °C. The “TOP1 inhibitory activity (semiquantitative score relative to 1 µM CPT)” value at recombinant human TOP1 stood at 0. Besides, the IC50 against FRK came to 8.91 µM. The compound further yielded an IC50 against FAK of 0.2987 ± 0.00194 µM. This compound registered an IC50 against HER-2 of 1.02 µM. The compound also registered an IC50 at BTK of 4.76 µM. For the same compound, the IC50 on c-Src turned out to be 1.03 µM. The compound further gave an IC50 on VEGFR-1 of 4.39 µM. Also, the IC50 against IGF-1R was found to be 0.198 µM. In [1], the “GI% Hela” value stood at 25.64%. The same compound came in with an IC50 on VEGFR-2 of 8.55 µM. Further, in [2], the “GI% DLD1” value came out at 22.51% and the IC50 is above 100 µM. Besides, the “GI% MCF-7” value in data set [3] was 14.26%. In addition, at EGFR, the IC50 was found to be 0.244 ± 0.00841 µM. Also, in data set [4], the “GI% HCT-116” value worked out at 18.64% and the IC50 is above 100 µM. The “GI% MDMBA-231” value in data set [5] was found to be 37.15%.

For `FC(F)(F)c1ccc(-c2cc(OCCCNC3CCCCC3)c3ccccc3n2)cc1` [10b, N-(3-((2-(4-(trifluoromethyl)phenyl)quinolin-4-yl)oxy)propyl)cyclohexanamine], the melting point lay in the range of 68 to 70 °C. Also, the “TOP1 inhibitory activity (semiquantitative score relative to 1 µM CPT)” value at recombinant human TOP1 came out at 0. In addition, the IC50 against FRK worked out at 4.37 µM. At FAK, this compound gave an IC50 of 0.165 ± 0.00537 µM. On HER-2, this compound registered an IC50 of 0.598 µM. The same compound displayed an IC50 against BTK of 2.98 µM. In addition, the IC50 on c-Src is 7.78 µM. The IC50 on VEGFR-1 is 8.51 µM. For the same compound, the IC50 at IGF-1R was determined as 5.74 µM. The “GI% Hela” value in data set [1] is 55.49%. Further, the IC50 at VEGFR-2 was 8.68 µM. Further, in data set [2], the “GI% DLD1” value is 35.72% and the IC50 was determined as 40.3 ± 2.09 µM. The “GI% MCF-7” value in data set [3] is 64.81%. Besides, the IC50 on EGFR stood at 0.18 ± 0.00912 µM. For the same compound, in data set [4], the “GI% HCT-116” value turned out to be 24.10% and the IC50 was above 100 µM. Also, in [5], the “GI% MDMBA-231” value amounted to 45.35%.

In turn, `Clc1ccc(-c2cc(OCCCn3ccnc3)c3cc4c(cc3n2)OCO4)cc1` [12a, 8-(3-(1H-imidazol-1-yl)propoxy)-6-(4-chlorophenyl)-[1,3] dioxolo[4,5-g]quinoline] yielded a melting point of 146 to 148 °C. Moreover, the “TOP1 inhibitory activity (semiquantitative score relative to 1 µM CPT)” value at recombinant human TOP1 is reported as “−/+ (−/+: 0–25% 1 µM CPT)”. For the same compound, the IC50 on FRK is 0.734 µM. The same compound gave an IC50 at FAK of 0.225 ± 0.014 µM. On HER-2, this compound registered an IC50 of 0.0348 µM. On BTK, this compound came in with an IC50 of 0.196 µM. The IC50 on c-Src amounted to 0.0553 µM. This compound yielded an IC50 on VEGFR-1 of 1.76 µM. Besides, the IC50 on IGF-1R was 5.37 µM. The “GI% Hela” value in [1] is on record as 22.79%. For the same compound, the IC50 at VEGFR-2 worked out at 0.0483 µM. In data set [2], the “GI% DLD1” value was found to be 21.25% and the IC50 was above 100 µM. For the same compound, the “GI% MCF-7” value in data set [3] was 11.72%. In addition, the IC50 against EGFR amounted to 0.125 ± 0.00794 µM. In addition, in data set [4], the “GI% HCT-116” value turned out to be 16.25% and the IC50 was above 100 µM. Further, the “GI% MDMBA-231” value in [5] was determined as 4.98%.

Compound `Clc1ccc(-c2cc(OCCCN3CCOCC3)c3cc4c(cc3n2)OCO4)cc1` [12b, 6-(4-chlorophenyl)-8-(3-morpholinopropoxy)-[1,3]dioxolo [4,5-g]quinoline] displayed a melting point of 153 to 155 °C. Further, the “TOP1 inhibitory activity (semiquantitative score relative to 1 µM CPT)” value on recombinant human TOP1 is recorded as “−/+ (−/+: 0–25% 1 µM CPT)”. Further, the IC50 at FRK was 1.13 µM. At FAK, the IC50 was determined as 0.0709 ± 0.00316 µM. Moreover, the IC50 at HER-2 was found to be 0.0273 µM. Also, the IC50 at BTK is 0.213 µM. At c-Src, this compound yielded an IC50 of 0.0423 µM. At VEGFR-1, this compound showed an IC50 of 5.99 µM. At IGF-1R, this compound had an IC50 of 7.16 µM. For the same compound, the “GI% Hela” value in data set [1] was found to be 25.39%. The compound further displayed an IC50 on VEGFR-2 of 0.027 µM. In data set [2], the “GI% DLD1” value was 72.95% and the IC50 amounted to 8.36 ± 1.08 µM. For the same compound, the “GI% MCF-7” value in [3] was 64.38%. Also, the IC50 at EGFR was 0.0954 ± 0.00205 µM. Besides, the “fold decreased activity than Gefitinib, EGFR” value on EGFR (from IC50 values) was 2 fold. Also, in data set [4], the “GI% HCT-116” value came out at 31.28% and the IC50 was 14.4 ± 3.69 µM. For the same compound, the “GI% MDMBA-231” value in data set [5] came out at 14.28%.
